Source: paper PMC3827198, “Characterisation of AmphiAmR11, an Amphioxus (Branchiostoma floridae) D2-Dopamine-Like G Protein-Coupled Receptor” (PLoS ONE, 2013)
Counter-ions that a name gives are not always drawn. Like-named read-outs stand apart in the source and are kept apart here.

Tests used:
[1] = system: dopamine-induced ERK1/2 activation; assay: Effect of pertussis toxin and signalling inhibitors on agonist-induced ERK1/2 activation in AmphiAmR11-expressing CHO-K1 cells; assay type: cell-based, Chinese hamster; conditions: 10 µM inhibitor, 10 nM dopamine, 5 minutes
Procedure: Phospho-extracellular signal-related kinase (Phospho-ERK) levels were determined essentially as described previously. Minor modifications have been described. ERK1/2 phosphorylation levels were quantified by densitometry. The developed films were scanned in and analysed using the software program, Aida. The data generated by Aida was then processed using Microsoft Excel. Values for the kinase expression and activity levels were defined as 100% in the control samples. Student’s T-test (two-tailed and unpaired) was used to test for significance.
Figure 5 Effect of pertussis toxin and signalling inhibitors on dopamine-induced ERK1/2 activation in AmphiAmR11-expressing CHO-K1 cells. For the pertussis toxin experiment, AmphiAmR11-expressing CHO-K1 cells were pre-incubated with pertussis toxin (200 ng/ml) for 16 hours prior to serum-starvation for 2 hours in the absence of the toxin. Cells were then stimulated for 5 mins with 10 nM dopamine (open bar) or F-12 Hams control (black bar). For all other inhibitors, AmphiAmR11-expressing CHO-K1 cells were serum starved for 2 hours including incubation with 10 µM inhibitor or F-12 Hams control for the final 20 (AG1296 and AG1478) or 30 (PP2, LY294002, Ro31-8220, U0126, U73122 and U73343) minutes. Cells were then stimulated for 5 minutes with 10 nM dopamine […] in the presence of the inhibitor. Basal measurement in the absence of dopamine and inhibitor (first black bar) and the dopamine-only response in the absence of inhibitor (first open bar) are shown. (A) Representative blots from three or four independent experiments. […] Data are expressed as the mean + SEM. n = 3 - 4. DA, dopamine; PTX, pertussis toxin; Ro, Ro 31-8220; LY, LY294002.
Figure S3. Time courses for the effect of dopamine and tyramine on ERK1/2 phosphorylation in AmphiAmR11-expressing CHO-K1 cells. (A and B) AmphiAmR11-expressing CHO-K1 cells were serum-starved for 2 hours, prior to stimulation with tyramine or dopamine at the specified concentration for the specified length of time. Equal quantities of cell lysates were separated by SDS-PAGE and analysed for pERK or tERK by Western blotting. (C and D): AmphiAmR11-expressing CHO-K1 cells were incubated with pertussis toxin (200 ng/mL) for 16 hours followed by stimulation as described for Figures A and B. (A to D) Representative blot for each condition from three to four independent experiments. (E) Summary of the quantified blots. Data are expressed as the mean ± SEM. n = 3-4. PTX, pertussis toxin; Min, minutes.

D3-dopamine receptors = system: D3-dopamine receptors; design: method as in PMID 10531409, PMID 9572301; conditions: cited from earlier work
D2-dopamine receptors = system: D2-dopamine receptors; design: method as in PMID 10531409, PMID 9572301; conditions: cited from earlier work
CHO cell cyclic AMP = CHO cell cyclic AMP level after forskolin; assay type: cell-based, Chinese hamster; conditions: 10 µM forskolin; basal 5.1 ± 1.7
Procedure: cAMP levels in stably transfected CHO-K1 cells were determined as described previously, except 100 µM isobutylmethylxanthine (IBMX) was used. cAMP levels are represented as a percentage of basal samples unless otherwise stated. Student’s T-test (two-tailed and unpaired) was used to test for significance. Unless otherwise stated, all data are shown as mean ± SEM. Each data point plotted was the mean of data obtained from at least three experiments. Within each experiment three separate replicate wells were analysed for each condition and the cAMP assays on each of the wells was carried out in duplicate.
Forskolin was used both to increase basal cAMP levels to make it easier to detect increases and decreases in cAMP levels in the same experiments and also to potentiate responses to agonists to more accurately determine their threshold effects [see 22]. A non-saturating 10 µM concentration of forskolin was used. Basal levels of CHO cell cyclic AMP were 5.1 ± 1.7 pmoles / mg protein (n = 3) and these were raised to 1053.7 ± 4.8 pmoles / mg protein after exposure to 10 µM forskolin. Protein levels were determined using a Bradford assay.

AmphiAmR11 [2] = biological target: T1, AmphiAmR11 (Branchiostoma floridae, UniProt A0PF35); assay: ERK1/2 phosphorylation in AmphiAmR11-expressing CHO-K1 cells (Western blotting); assay type: cell-based; conditions: for Effect of antagonist on ERK1/2 phosphorylation in the absence of dopamine: 1 μM antagonist
T1 sequence (A0PF35 entry or part of it): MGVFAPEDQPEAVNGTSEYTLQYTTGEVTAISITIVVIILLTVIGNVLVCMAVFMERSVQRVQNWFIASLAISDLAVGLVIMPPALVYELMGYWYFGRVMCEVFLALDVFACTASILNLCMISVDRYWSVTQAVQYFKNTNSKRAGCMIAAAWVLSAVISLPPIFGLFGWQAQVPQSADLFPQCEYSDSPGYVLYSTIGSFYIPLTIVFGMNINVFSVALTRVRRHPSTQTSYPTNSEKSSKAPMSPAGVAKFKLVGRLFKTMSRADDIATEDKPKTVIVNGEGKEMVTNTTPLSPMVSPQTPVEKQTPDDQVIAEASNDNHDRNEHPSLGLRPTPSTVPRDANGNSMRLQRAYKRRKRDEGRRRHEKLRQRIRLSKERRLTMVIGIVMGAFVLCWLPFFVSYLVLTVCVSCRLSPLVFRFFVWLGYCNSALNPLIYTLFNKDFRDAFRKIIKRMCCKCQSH

AmphiAmR11 [3] = biological target: T1, AmphiAmR11; assay: Inhibition of forskolin-stimulated cAMP levels in AmphiAmR11-expressing CHO-K1 cells (agonist mode); assay type: cell-based; conditions: for Decrease of forskolin-stimulated cAMP levels by antagonist in the absence of agonist: 1 μM antagonist; for Agonist type at AmphiAmR11 (full or partial): cAMP assay; for Inhibition of forskolin-stimulated cAMP levels (maximal): concentration-response curves, absence of other agonist
Procedure: CHO-K1 cells were maintained in Ham’s F-12 nutrient media (Invitrogen Life Sciences) supplemented with 10% charcoal-stripped foetal bovine serum (CS-FBS) (Hyclone, Cramlington, UK), 50 U/μg penicillin/streptomycin and 4 mM L-glutamine (Invitrogen Life Sciences) in 5% CO2 at 37°C. Stably transfected cell lines were generated by the transfection of CHO-K1 cells using Lipofectamine (Invitrogen Life Sciences) as described previously [8, 9].
cAMP levels in stably transfected CHO-K1 cells were determined as described previously [8, 9, 21], except 100 µM isobutylmethylxanthine (IBMX) was used. cAMP levels are represented as a percentage of basal samples unless otherwise stated. Student’s T-test (two-tailed and unpaired) was used to test for significance. Unless otherwise stated, all data are shown as mean ± SEM. Each data point plotted was the mean of data obtained from at least three experiments. Within each experiment three separate replicate wells were analysed for each condition and the cAMP assays on each of the wells was carried out in duplicate.
Figure 1 Effect of biogenic amines and synthetic agonists on forskolin-stimulated cAMP levels in AmphiAmR11-expressing CHO-K1 cells. Cells were pre-incubated with 100 µM IBMX for 20 min, followed by incubation with 10 µM forskolin and 100 µM IBMX in the presence of increasing concentrations of various biogenic amines (A) or synthetic agonists (B) for a further 20 min. Data are expressed as the mean ± SEM. n ≥ 3.

AmphiAmR4 = system: AmphiAmR4; design: method as in PMID 23183848; conditions: cited from earlier work
[4] = system: OctβRs, CG6989, CG6919 and CG7078; design: method as in PMID 15998303; conditions: cited from earlier work
AmphiAmR11 [5] = biological target: T1, AmphiAmR11; assay: Block of dopamine-induced ERK1/2 activation in AmphiAmR11-expressing CHO-K1 cells by antagonists; assay type: cell-based; conditions: 1 µM antagonist, 10 nM dopamine, 5 min
AmphiAmR11 [6] = biological target: T1, AmphiAmR11; assay: Block of tyramine-induced inhibition of forskolin-stimulated cAMP levels in AmphiAmR11-expressing CHO-K1 cells; assay type: cell-based; conditions: 30 nM tyramine; for Block of tyramine-induced inhibition of forskolin-stimulated cAMP levels: 10 µM forskolin
human 5HT1A receptor = conditions: cited from earlier work

## O=c1cc(N2CCOCC2)oc2c(-c3ccccc3)cccc12 [LY294002]
[1]
  Effect of inhibitor on dopamine-induced ERK1/2 phosphorylation: significantly reduced
D3-dopamine receptors
  Effect on D3-mediated ERK1/2 activation in CHO cells: partially reduce
D2-dopamine receptors
  Effect on D2-mediated ERK1/2 activation in CHO cells: partially reduce

## C=C[C@@]1(C)CC(=O)[C@]2(O)[C@@]3(C)[C@@H](O)CCC(C)(C)[C@@H]3[C@H](O)[C@H](OC(C)=O)[C@@]2(C)O1 [forskolin, Forskolin]
CHO cell cyclic AMP
  CHO cell cyclic AMP level after exposure to forskolin: 1053.7 ± 4.8 pmoles / mg protein

## c1ccc2c(CC3=NCCN3)cccc2c1 [naphazoline, naphazoline hydrochloride]
AmphiAmR11 [2]; 100 nM synthetic agonist, 5 min
  Effect on ERK1/2 phosphorylation at 100 nM: increased the ERK1/2 phosphorylation level above that of the basal condition
AmphiAmR11 [2]; 1 µM synthetic agonist, 5 min, dopamine as reference
  Effect on ERK1/2 phosphorylation at 1 µM: most effective of the synthetic agonists
AmphiAmR11 [3]; 1 µM agonist, 10 µM forskolin, 100 µM IBMX, 20 min
  Effect on forskolin-stimulated cAMP levels at 1 µM: most effective agonists
AmphiAmR11 [3]; 10 µM forskolin, 100 µM IBMX, 20 min, full concentration response curves, read-out: EC50 for decrease in forskolin-stimulated cAMP levels
  EC50: 0.287 nM
AmphiAmR4
  Agonist activity at AmphiAmR4: most potent agonist

## Cc1ccc(N(CC2=NCCN2)c2cccc(O)c2)cc1 [phentolamine, phentolamine hydrochloride]
AmphiAmR11 [2]
  Effect of antagonist on ERK1/2 phosphorylation in the absence of dopamine: did not exhibit any agonistic properties
[4]
  Agonist properties at Drosophila OctβRs: agonist properties
AmphiAmR11 [5]
  Block of dopamine-induced ERK1/2 activation: fully block
AmphiAmR11 [6]; 1 μM antagonist
  Block of tyramine-induced inhibition of forskolin-stimulated cAMP levels: fully block
AmphiAmR4
  Agonist activity at AmphiAmR4: agonist properties

## COC(=O)[C@H]1[C@H]2C[C@H]3c4[nH]c5ccccc5c4CCN3C[C@H]2CC[C@@H]1O [rauwolscine, rauwolscine hydrochloride]
AmphiAmR11 [2]
  Effect of antagonist on ERK1/2 phosphorylation in the absence of dopamine: increase in ERK1/2 phosphorylation
Human 5HT1A receptor
  Agonist activity at human 5HT1A receptor: partial agonist activity
AmphiAmR11 [3]
  EC50: 121 nM
  Agonist type at AmphiAmR11 (full or partial): full agonists
  Inhibition of forskolin-stimulated cAMP levels (maximal): greater than 90%
AmphiAmR11 [3]; 10 µM forskolin
  Decrease of forskolin-stimulated cAMP levels by antagonist in the absence of agonist: could inhibit forskolin-stimulated cAMP levels
AmphiAmR11 [5]
  Block of dopamine-induced ERK1/2 activation: no significant effect
AmphiAmR11 [6]; 1 μM antagonist
  Block of tyramine-induced inhibition of forskolin-stimulated cAMP levels: no significant blocking effect

## COC[C@H]1OC(=O)c2coc3c2[C@@]1(C)C1=C(C3=O)[C@@H]2CCC(=O)[C@@]2(C)C[C@H]1OC(C)=O [wortmannin]
D3-dopamine receptors
  Effect on D3-mediated ERK1/2 activation in CHO cells: partially reduce
D2-dopamine receptors
  Effect on D2-mediated ERK1/2 activation in CHO cells: partially reduce

## COC(=O)[C@@H]1[C@H]2C[C@H]3c4[nH]c5ccccc5c4CCN3C[C@@H]2CC[C@@H]1O [yohimbine, yohimbine hydrochloride]
AmphiAmR11 [2]
  Effect of antagonist on ERK1/2 phosphorylation in the absence of dopamine: increase in ERK1/2 phosphorylation
Human 5HT1A receptor
  Agonist activity at human 5HT1A receptor: partial agonist activity
AmphiAmR11 [3]
  EC50: 17.1 nM
  Agonist type at AmphiAmR11 (full or partial): full agonists
  Inhibition of forskolin-stimulated cAMP levels (maximal): greater than 90%
AmphiAmR11 [3]; 10 µM forskolin
  Decrease of forskolin-stimulated cAMP levels by antagonist in the absence of agonist: could inhibit forskolin-stimulated cAMP levels
AmphiAmR11 [5]
  Block of dopamine-induced ERK1/2 activation: no significant effect
AmphiAmR11 [6]; 1 μM antagonist
  Apparent enhancement of tyramine-induced inhibition of forskolin-stimulated cAMP levels: appeared to enhance
  Block of tyramine-induced inhibition of forskolin-stimulated cAMP levels: no significant blocking effect
AmphiAmR11 [6]; varying concentrations of antagonist
  Blocking effect on tyramine-induced response at reduced antagonist concentrations: no blocking effect
